In the assay the target is T1, FLuc-C-HiBiT (Photinus pyralis, UniProt P08659).
T1 construct: firefly luciferase with C-terminal HiBiT tag, E. coli expressed
Description: biochemical. The settings on record: enzyme activity, 10 uM ATP; read-out: IC50 or SDR50 (mM) / FLuc E. The protocol:
The enzyme activity of FLuc-N-HiBiT, FLuc-C-HiBiT, and FLuc-C-NLuc was measured similar to P. pyralis firefly luciferase (FLuc) as previously described. […] Compounds and controls were added to each plate as described in Supplementary Data 8 with a Hornet pintool system (Wako Automation). Compounds were incubated with respective enzymes for 30–60 min at room temperature protected from light and covered by solid metal lid to prevent evaporation. […] Luciferin was incubated with FLuc enzyme for 5 min before FLuc activity was then measured on a ViewLux CCD imager (PerkinElmer), with exposure times up to ten seconds with medium to high gain settings. Data were normalized to average no enzyme control as 100% enzyme inhibition and average DMSO neutral control. See Supplementary Table 4 for additional details. As a proof-of-concept target, we appended the sensor protein or corresponding α-peptide to either the N- or C-terminus of the target protein firefly luciferase (FLuc), an ATP cofactor-dependent monooxygenase (Supplementary Fig. 1a) having a broad, well-characterized and accessible ligand pharmacology. For initial characterization of the SDR concept, either NLuc or the 11 amino acid HiBiT tag (α-peptide) and complementary 18 kDa LgBiT subunit (ω-fragment), which self-assemble to reconstitute functional NLuc enzyme[24] were tested. In contrast to the ATP-dependent bioluminescent FLuc enzyme, NLuc generates a bright bioluminescence in an ATP-independent manner from the direct oxidation of furimazine (Supplementary Fig. 1b). […] Next, FLuc-C-NLuc, FLuc-N-HiBiT or FLuc-C-HiBiT were assayed with the same inhibitor in an SDR assay format by monitoring bioluminescence from NLuc or its reconstitution by α-complementation with LgBiT. Measurements of NLuc activity were made either in the absence or presence of the FLuc ATP cofactor, as NLuc bioluminescence is ATP-independent.

T1 sequence (P08659 whole entry, looked up): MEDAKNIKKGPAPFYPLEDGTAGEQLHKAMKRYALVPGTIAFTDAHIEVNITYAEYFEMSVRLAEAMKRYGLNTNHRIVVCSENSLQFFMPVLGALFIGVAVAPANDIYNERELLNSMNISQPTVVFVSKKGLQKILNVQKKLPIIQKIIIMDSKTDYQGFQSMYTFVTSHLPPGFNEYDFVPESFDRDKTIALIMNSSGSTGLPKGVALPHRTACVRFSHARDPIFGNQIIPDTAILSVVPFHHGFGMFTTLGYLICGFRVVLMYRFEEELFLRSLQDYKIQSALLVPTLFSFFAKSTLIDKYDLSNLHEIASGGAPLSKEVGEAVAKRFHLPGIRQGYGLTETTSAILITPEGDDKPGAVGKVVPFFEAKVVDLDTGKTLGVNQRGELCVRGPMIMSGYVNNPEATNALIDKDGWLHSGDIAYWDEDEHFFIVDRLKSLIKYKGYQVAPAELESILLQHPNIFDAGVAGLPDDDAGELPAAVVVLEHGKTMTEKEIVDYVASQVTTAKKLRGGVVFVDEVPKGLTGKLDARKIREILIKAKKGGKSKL

Turning to `N#Cc1ccc(C(=O)Nc2ccccc2-c2nc3ccccc3s2)c(F)c1` [NCGC00103058-01], the IC50 is above 30 µM.

As to `COc1cc(OC)cc(C(=O)Nc2ccc(-c3nc4ccccc4s3)cc2C)c1` [NCGC00103060-01], the IC50 is above 30 µM.

Take `Cc1ccc(C(=O)Nc2ccc(-c3nc4ccccc4s3)cc2C)cc1C` [NCGC00103062-01]: the IC50 is above 30 µM.

For the molecule `COc1ccc(-c2nnc(SC(C)C(=O)O)o2)cc1` (centres unmarked) [NCGC00103120-01], the IC50 was 14 µM.

Regarding `Cc1cccc(-c2nnc(SCCC(=O)O)o2)c1` [NCGC00103138-01], the IC50 amounted to 4.95 µM.

For the molecule `O=C(O)CCSc1nnc(-c2ccc(Cl)cc2Cl)o1` [NCGC00103142-01], the IC50 was found to be 0.495 µM.

As for `Cc1ccc2oc(-c3ccc(C)c(NC(=O)/C=C/c4ccc(Cl)cc4)c3)nc2c1` [NCGC00103154-01], the IC50 worked out at 11.1 µM.

On to `Cc1ccc(-c2nnc(SCc3ccccc3C)o2)cc1` [NCGC00103155-01], for which the IC50 turned out to be 11.1 µM.

On to `Cc1ccc(-c2nnc(SCc3ccccc3C#N)o2)cc1` [NCGC00103157-01], for which the IC50 is 2.21 µM.

For the molecule `CCc1ccc2oc(-c3ccc(C)c(NC(=O)c4ccc(C#N)cc4F)c3)nc2c1` [NCGC00103160-01], the IC50 is above 30 µM.

On to `COc1ccc(-n2nc3ccc(NC(=O)c4c(OC)cccc4OC)cc3n2)cc1` [NCGC00103168-01], for which the IC50 is above 30 µM.

For `CC(C)c1ccc(C(=O)Nc2cccc3cccnc23)cc1` [NCGC00103193-01], the IC50 was 9.89 µM.

Turning to `Cc1ccc(C(=O)Nc2cccc3cccnc23)cc1Cl` [NCGC00103195-01], the IC50 was above 30 µM.

On to `CCC(=O)Nc1cc(-c2nc3ccccc3s2)c(Cl)cc1Cl` [NCGC00103217-01], for which the IC50 is above 30 µM.

Turning to `COc1ccc(-c2nc3ccccc3o2)cc1NC(=O)c1cccnc1` [NCGC00103240-01], the IC50 is 12.4 µM.

As to `COc1ccc(C(=O)Nc2cc(C)c(O)c(-c3nc4ccccc4s3)c2)cc1OC` [NCGC00103306-01], the IC50 is 1.4 µM.

Consider `CCOc1ccc(C(=O)Nc2cc(-c3nc4cc(OC)ccc4o3)ccc2C)cc1[N+](=O)[O-]` [NCGC00103318-01], for which the IC50 came out at 7.85 µM.

For `COc1cc(C(=O)Nc2cc(C)c(O)c(-c3nc4ccccc4s3)c2)cc(OC)c1OC` [NCGC00103336-02], the IC50 was above 30 µM.

As for `Cc1ccc(NCc2nc3ccccc3n2CCOc2ccccc2)cc1` [NCGC00104457-01], the IC50 came out at 11.1 µM.

For `CCc1ccccc1NC(=O)c1nnn(-c2ccc(F)cc2)c1C` [NCGC00104938-01], the IC50 was 11.1 µM.

Take `CC(=O)NCCNC(=O)c1ccc2c(=O)n(CCc3ccccc3)c(=O)[nH]c2c1` [NCGC00104963-01]: the IC50 turned out to be 5.56 µM.

For `Cc1ccc(Cl)cc1-n1nnc(-c2nsc(NC(=O)c3ccccc3Cl)n2)c1C` [NCGC00105211-01], the IC50 is above 30 µM.

In the case of `O=C(c1cc(-c2ccccc2O)on1)N1CCCCC1` [NCGC00105578-01], the IC50 came to 9.89 µM.

Take `O=C(Nc1cccnc1)c1cc(-c2ccc(Cl)cc2)on1` [NCGC00105781-01]: the IC50 stood at 2.48 µM.

`Cc1ccc(Nc2c(-c3ccc(N(C)C)cc3)nc3[nH]cnn23)cc1` [NCGC00105887-01]: the IC50 stood at 12.4 µM.

In the case of `CN(C)c1ccc(-c2nc3ccccn3c2Nc2ccc3c(c2)OCCO3)cc1` [NCGC00106568-01], the IC50 is 11.1 µM.

As to `Oc1ccc(-c2nc3ccccn3c2Nc2ccc3c(c2)OCCO3)cc1` [NCGC00106600-01], the IC50 came out at 17.6 µM.

With `COc1ccc(NC(=O)Nc2nnc(C)s2)cc1` [NCGC00106652-01], the IC50 was 11.1 µM.

Regarding `Cc1ccn2c(Nc3ccc(C(C)C)cc3)c(-c3cccs3)nc2c1` [NCGC00106676-01], the IC50 stood at 11.1 µM.

Regarding `Cc1cccc(NC(=O)Nc2ccc(F)cc2)n1` [NCGC00106833-01], the IC50 was found to be 12.4 µM.

As for `Cc1ccc(C(=O)O)cc1Nc1nc2ccccc2n2nnnc12` [NCGC00106886-01], the IC50 was found to be 12.4 µM.

As to `CCOc1cccc(NC(=O)CSc2ncc(-c3ccccc3)[nH]2)c1` [NCGC00106968-01], the IC50 was above 30 µM.

As for `Cc1ccc(NC(=O)c2ncn(-c3ccccc3)n2)cc1Cl` [NCGC00107303-01], the IC50 turned out to be 4.95 µM.

For `CCc1cccc(NCc2ccccc2-c2nnc(-c3ccccc3Cl)o2)c1` [NCGC00107400-01], the IC50 is above 30 µM.

As to `Fc1ccc(NCc2ccccc2-c2nnc(-c3ccccc3Cl)o2)cc1Cl` [NCGC00107402-01], the IC50 is 15.7 µM.

`CC(=O)c1cccc(NC(=O)c2nc3ccccc3n(C)c2=O)c1` [NCGC00107713-01]: the IC50 came to 3.13 µM.

Regarding `CCn1c(=O)c(C(=O)Nc2ccc(C(C)=O)cc2)nc2ccccc21` [NCGC00107725-01], the IC50 worked out at 12.4 µM.

For the molecule `COc1ccc(Nc2cc(C(=O)NC3CCC(C)CC3)c3ccccc3n2)cc1OC` (centres unmarked) [NCGC00108132-01], the IC50 was above 30 µM.

With `CCOC(=O)c1cc(-c2ccccc2)nn1Cc1ccccc1` [NCGC00108381-01], the IC50 was above 30 µM.

On to `COc1ccccc1-c1cc2nc(C)c(CCC(=O)O)c(C)n2n1` [NCGC00108411-01], for which the IC50 came out at 12.4 µM.

On to `Cc1ccc(N2C(=O)c3[nH]nc(C)c3C2c2ccc(Cl)cc2)cc1` (centres unmarked) [NCGC00108483-01], for which the IC50 was found to be 12.4 µM.

Turning to `CCc1ccc(-c2nc(CSCC(=O)NCc3ccc(C)cc3)c(C)o2)cc1` [NCGC00109429-01], the IC50 came to 14 µM.

Take `Cc1ccc(NC(=O)CCc2c(C)nc3cc(-c4ccccc4)nn3c2C)cc1F` [NCGC00109926-01]: the IC50 was found to be 11.1 µM.

Consider `CCOc1ccc(NC(=O)CCc2c(C)nc3cc(-c4ccc(Cl)cc4)nn3c2C)cc1` [NCGC00110024-01], for which the IC50 was 2.79 µM.

For `CC(=O)c1ccc(NC(=O)CCc2c(C)nc3cc(-c4ccc(Cl)cc4)nn3c2C)cc1` [NCGC00110026-01], the IC50 was determined as 7.85 µM.

In the case of `COC(=O)c1ccccc1NC(=O)CCc1c(C)nc2cc(-c3ccc(Cl)cc3)nn2c1C` [NCGC00110028-01], the IC50 was determined as 9.89 µM.

Turning to `CCOC(=O)c1cccc(NC(=O)CCc2c(C)nc3cc(-c4ccc(Cl)cc4)nn3c2C)c1` [NCGC00110030-01], the IC50 came to 8.81 µM.

As to `Cc1nc2cc(-c3cccc(F)c3)nn2c(C)c1CCC(=O)NC1CCCCC1` [NCGC00110095-01], the IC50 was 8.81 µM.

As for `CCOC(=O)c1ccc(NC(=O)CSc2nnc(CNC(=O)c3ccc(OC)cc3)n2CC)cc1` [NCGC00110413-01], the IC50 amounted to 12.4 µM.

For the molecule `CCOc1ccc(-c2cc(CCCC(=O)NCCc3ccc(OC)c(OC)c3)no2)cc1` [NCGC00110832-01], the IC50 turned out to be 9.89 µM.

With `CCOc1ccc(-c2cc(CCCC(=O)NCCc3ccc(OCC)c(OCC)c3)no2)cc1` [NCGC00110850-01], the IC50 came to 3.51 µM.

In the case of `CCOc1ccc(-c2cc(CCCC(=O)NCCc3ccc(SC)cc3)no2)cc1` [NCGC00110854-01], the IC50 was determined as 3.13 µM.

For `COc1ccc(C)cc1NC(=O)c1ccc2c(Cl)c3c(nc2c1)CCC3` [NCGC00111420-01], the IC50 turned out to be 1.11 µM.

For `COc1cccc(C(=O)Nc2cccc(OCc3cc(=O)n4c5c(sc4n3)CCCC5)c2)c1` [NCGC00111495-01], the IC50 is 9.89 µM.

Regarding `O=C(Nc1c(C(=O)Nc2ccc(F)cc2)oc2ccccc12)c1cc2ccccc2o1` [NCGC00111604-01], the IC50 is 7.85 µM.

Turning to `COc1ccc(CNC(=O)c2ccc3c(c2)N=C(C)c2c(C)ccc(C)c2S3)cc1` [NCGC00112026-02], the IC50 is above 30 µM.

For the molecule `CCc1ccc2nc(N3CCC(C(=O)O)CC3)sc2c1` [NCGC00112332-01], the IC50 is 0.0351 µM.

In the case of `Cc1cc(F)ccc1NC(=O)c1csc2c1CCC(C)C2` (centres unmarked) [NCGC00112512-01], the IC50 is 2.79 µM.

Turning to `COc1ccc(CCNc2nc3ccccc3c3nc(-c4cccc(C)c4)nn23)cc1OC` [NCGC00112564-01], the IC50 stood at 11.1 µM.

As to `COc1cccc(CNc2nc3ccccc3c3nc(-c4cccc(C)c4)nn23)c1` [NCGC00112594-01], the IC50 stood at 7.85 µM.

Consider `CCOC(=O)c1ccc(NC(=O)c2csc3c2CCCC3)cc1` [NCGC00112858-01], for which the IC50 turned out to be 15.7 µM.

For `COc1ccc(CCNC(=O)C2CCCN(c3nc4c(C)cc(C)cc4s3)C2)cc1OC` (centres unmarked) [NCGC00113075-01], the IC50 worked out at 5.56 µM.

As for `CCOc1cc2sc(N3CCC(C(=O)Nc4ccc(C(C)C)cc4)CC3)nc2cc1Br` [NCGC00113423-01], the IC50 was determined as 7 µM.

Take `Cc1c(C(=O)NCc2cccc(Br)c2)oc2ccc3c(c12)C(=O)CC(C)(C)O3` [NCGC00113428-01]: the IC50 was 11.1 µM.

On to `O=C(c1ccc(CSc2nc3ccncc3n2Cc2ccccc2F)cc1)N1CCCCC1` [NCGC00113496-01], for which the IC50 was 14 µM.

Take `Cc1cccc(CNC(=O)Cc2csc3ccccc23)c1` [NCGC00113581-01]: the IC50 is above 30 µM.

In the case of `COc1ccccc1CNC(=O)c1ccc2nc(N3CCCCC3)sc2c1` [NCGC00113612-01], the IC50 is above 30 µM.

As to `CCOC(=O)c1ccc(NC(=O)c2nsc3ccccc23)cc1` [NCGC00113675-01], the IC50 is 3.51 µM.

These data come from article PMC12064818, “A general assay platform to study protein pharmacology using ligand-dependent structural dynamics” (Nature Communications, 2025).
